Experimental data: ChEMBL document CHEMBL5291721, “A preclinical secondary pharmacology resource illuminates target-adverse drug reaction associations of marketed drugs” (Nat Commun, 2023)

Legend:
[1] = target: Sodium-dependent dopamine transporter (Homo sapiens, UniProt Q01959)
[2] = target: Beta-1 adrenergic receptor (Homo sapiens, UniProt P08588); type: functional
[3] = target: 3',5'-cyclic-AMP phosphodiesterase 4D (Homo sapiens, UniProt Q08499); type: functional
[4] = target: Delta-type opioid receptor (Homo sapiens, UniProt P41143)
Delta-type opioid receptor, sequence (P41143 whole entry): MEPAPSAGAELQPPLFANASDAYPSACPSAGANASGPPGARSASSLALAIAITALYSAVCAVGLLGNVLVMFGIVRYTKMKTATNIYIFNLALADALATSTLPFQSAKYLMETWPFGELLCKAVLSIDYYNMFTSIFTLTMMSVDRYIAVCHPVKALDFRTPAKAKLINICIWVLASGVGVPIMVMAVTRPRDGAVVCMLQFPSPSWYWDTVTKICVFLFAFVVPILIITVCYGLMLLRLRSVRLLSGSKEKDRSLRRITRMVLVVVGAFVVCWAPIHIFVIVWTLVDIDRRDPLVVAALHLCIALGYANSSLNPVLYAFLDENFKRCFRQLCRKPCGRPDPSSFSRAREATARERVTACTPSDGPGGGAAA

[5] = target: T1, Prostaglandin G/H synthase 1 (Rattus norvegicus, UniProt Q63921); type: functional
T1 sequence (Q63921 whole entry): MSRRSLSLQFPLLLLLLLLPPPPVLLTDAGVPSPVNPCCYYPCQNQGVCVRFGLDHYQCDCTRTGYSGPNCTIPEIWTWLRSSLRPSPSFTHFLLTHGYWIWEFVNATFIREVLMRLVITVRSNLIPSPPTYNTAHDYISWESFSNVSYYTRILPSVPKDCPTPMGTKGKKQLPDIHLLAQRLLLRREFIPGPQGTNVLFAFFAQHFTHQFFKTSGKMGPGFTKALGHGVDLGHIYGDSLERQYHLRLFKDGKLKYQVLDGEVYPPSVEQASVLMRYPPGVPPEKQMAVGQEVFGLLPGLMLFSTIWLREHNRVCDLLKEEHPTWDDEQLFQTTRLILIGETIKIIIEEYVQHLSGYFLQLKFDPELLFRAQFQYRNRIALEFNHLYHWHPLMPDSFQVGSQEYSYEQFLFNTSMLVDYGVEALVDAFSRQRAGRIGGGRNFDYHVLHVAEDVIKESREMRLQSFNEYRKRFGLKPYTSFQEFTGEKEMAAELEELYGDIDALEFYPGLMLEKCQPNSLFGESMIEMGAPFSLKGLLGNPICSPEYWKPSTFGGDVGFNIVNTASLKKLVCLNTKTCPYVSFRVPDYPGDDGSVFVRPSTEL

[6] = target: cGMP-inhibited 3',5'-cyclic phosphodiesterase 3A (Homo sapiens, UniProt Q14432); type: functional
cGMP-inhibited 3',5'-cyclic phosphodiesterase 3A, sequence (Q14432 whole entry): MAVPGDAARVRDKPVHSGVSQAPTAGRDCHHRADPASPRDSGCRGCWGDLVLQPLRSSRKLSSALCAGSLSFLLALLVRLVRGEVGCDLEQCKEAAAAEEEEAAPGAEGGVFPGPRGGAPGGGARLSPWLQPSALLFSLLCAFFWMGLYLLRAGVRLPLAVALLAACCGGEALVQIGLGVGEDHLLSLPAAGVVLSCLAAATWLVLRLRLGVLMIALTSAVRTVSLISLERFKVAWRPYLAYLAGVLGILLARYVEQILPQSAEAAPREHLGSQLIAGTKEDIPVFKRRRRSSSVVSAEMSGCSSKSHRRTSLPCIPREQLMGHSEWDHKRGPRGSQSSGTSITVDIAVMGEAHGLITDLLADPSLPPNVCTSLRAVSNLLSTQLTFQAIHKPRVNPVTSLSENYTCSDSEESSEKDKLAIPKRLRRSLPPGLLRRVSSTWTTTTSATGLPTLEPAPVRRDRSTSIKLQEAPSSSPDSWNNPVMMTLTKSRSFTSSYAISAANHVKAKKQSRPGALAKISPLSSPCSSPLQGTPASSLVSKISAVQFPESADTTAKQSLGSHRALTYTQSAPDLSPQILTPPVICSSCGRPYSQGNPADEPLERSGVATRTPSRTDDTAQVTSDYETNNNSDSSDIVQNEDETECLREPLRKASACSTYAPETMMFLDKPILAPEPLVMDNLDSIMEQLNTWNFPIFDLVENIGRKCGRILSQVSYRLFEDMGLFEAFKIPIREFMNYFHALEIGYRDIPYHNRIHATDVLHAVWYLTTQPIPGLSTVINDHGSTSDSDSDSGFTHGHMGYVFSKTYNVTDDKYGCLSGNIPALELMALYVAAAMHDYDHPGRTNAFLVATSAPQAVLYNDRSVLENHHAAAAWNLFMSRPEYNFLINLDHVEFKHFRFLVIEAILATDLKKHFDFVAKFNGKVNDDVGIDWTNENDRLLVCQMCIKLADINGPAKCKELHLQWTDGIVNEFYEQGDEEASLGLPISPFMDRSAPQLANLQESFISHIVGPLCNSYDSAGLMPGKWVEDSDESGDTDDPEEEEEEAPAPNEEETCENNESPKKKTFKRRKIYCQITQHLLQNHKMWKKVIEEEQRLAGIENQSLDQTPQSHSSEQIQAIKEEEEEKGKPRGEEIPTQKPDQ

[7] = target: T2, Alpha-2C adrenergic receptor (Homo sapiens, UniProt P18825); type: functional
T2 sequence (P18825 whole entry): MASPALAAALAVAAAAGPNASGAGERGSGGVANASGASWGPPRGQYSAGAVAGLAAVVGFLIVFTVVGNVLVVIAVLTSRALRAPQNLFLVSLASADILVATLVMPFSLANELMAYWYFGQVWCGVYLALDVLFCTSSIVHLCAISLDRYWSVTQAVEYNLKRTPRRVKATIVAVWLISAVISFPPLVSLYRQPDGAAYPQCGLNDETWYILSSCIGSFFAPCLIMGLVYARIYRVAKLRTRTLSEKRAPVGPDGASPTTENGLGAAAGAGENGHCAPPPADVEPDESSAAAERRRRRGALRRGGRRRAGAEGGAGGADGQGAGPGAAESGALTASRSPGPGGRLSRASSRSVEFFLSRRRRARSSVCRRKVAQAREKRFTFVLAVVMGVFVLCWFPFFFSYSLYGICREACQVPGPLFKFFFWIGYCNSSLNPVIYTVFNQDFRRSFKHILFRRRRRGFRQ

[8] = target: Glutamate receptor ionotropic, NMDA 1 (Rattus norvegicus, UniProt P35439)
Androgen receptor = target: T3, Androgen receptor (Homo sapiens, UniProt P10275)
T3 sequence (P10275 whole entry): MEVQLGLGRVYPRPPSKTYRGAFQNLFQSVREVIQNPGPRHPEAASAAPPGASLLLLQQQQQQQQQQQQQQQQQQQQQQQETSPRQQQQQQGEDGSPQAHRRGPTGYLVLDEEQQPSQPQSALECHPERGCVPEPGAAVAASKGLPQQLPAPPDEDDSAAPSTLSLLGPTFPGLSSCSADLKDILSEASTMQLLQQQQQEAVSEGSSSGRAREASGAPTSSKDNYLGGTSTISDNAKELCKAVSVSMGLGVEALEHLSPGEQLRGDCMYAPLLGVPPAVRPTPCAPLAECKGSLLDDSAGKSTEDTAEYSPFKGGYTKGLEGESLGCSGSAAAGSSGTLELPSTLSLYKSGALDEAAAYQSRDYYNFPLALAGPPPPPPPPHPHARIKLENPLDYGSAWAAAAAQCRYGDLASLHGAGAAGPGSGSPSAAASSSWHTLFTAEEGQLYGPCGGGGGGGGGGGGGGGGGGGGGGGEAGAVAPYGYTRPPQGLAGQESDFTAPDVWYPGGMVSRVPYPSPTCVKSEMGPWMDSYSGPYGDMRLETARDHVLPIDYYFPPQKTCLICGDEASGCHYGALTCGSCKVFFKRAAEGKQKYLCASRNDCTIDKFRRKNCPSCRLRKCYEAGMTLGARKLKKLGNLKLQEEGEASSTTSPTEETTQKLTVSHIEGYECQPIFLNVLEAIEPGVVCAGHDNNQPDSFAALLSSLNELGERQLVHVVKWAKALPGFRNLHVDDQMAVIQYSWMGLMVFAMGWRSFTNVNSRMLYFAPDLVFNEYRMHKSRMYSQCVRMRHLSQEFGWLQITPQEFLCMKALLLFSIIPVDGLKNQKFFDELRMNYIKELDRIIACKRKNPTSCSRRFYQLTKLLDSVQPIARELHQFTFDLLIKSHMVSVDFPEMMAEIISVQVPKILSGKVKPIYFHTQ

Motilin receptor = Motilin receptor (Homo sapiens, UniProt O43193)
Motilin receptor, sequence (O43193 whole entry): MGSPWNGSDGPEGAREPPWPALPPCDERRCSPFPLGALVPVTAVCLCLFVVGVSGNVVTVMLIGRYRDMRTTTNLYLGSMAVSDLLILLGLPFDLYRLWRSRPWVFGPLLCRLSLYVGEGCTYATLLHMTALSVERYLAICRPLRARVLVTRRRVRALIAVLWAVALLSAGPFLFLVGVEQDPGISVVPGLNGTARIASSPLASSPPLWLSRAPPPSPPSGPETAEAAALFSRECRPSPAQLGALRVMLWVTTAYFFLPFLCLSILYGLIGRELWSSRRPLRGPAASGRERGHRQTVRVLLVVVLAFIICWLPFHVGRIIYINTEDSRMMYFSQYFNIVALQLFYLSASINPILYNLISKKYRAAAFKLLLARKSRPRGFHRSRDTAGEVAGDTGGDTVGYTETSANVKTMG

Histamine H2 receptor = Histamine H2 receptor (Homo sapiens, UniProt P25021); type: functional, cell-based
Histamine H2 receptor, sequence (P25021 whole entry): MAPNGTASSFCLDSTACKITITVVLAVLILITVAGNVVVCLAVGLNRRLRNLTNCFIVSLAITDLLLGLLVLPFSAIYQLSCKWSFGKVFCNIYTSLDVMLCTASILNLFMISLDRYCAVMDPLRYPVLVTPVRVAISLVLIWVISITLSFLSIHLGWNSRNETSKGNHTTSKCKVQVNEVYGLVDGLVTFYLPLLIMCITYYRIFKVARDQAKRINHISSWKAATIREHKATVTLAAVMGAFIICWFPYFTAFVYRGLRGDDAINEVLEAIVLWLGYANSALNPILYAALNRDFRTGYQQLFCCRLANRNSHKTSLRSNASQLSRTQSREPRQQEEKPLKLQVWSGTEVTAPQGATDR

[9] = target: T4, 5-hydroxytryptamine receptor 1A (Homo sapiens, UniProt P08908); type: functional, cell-based
T4 sequence (P08908 whole entry): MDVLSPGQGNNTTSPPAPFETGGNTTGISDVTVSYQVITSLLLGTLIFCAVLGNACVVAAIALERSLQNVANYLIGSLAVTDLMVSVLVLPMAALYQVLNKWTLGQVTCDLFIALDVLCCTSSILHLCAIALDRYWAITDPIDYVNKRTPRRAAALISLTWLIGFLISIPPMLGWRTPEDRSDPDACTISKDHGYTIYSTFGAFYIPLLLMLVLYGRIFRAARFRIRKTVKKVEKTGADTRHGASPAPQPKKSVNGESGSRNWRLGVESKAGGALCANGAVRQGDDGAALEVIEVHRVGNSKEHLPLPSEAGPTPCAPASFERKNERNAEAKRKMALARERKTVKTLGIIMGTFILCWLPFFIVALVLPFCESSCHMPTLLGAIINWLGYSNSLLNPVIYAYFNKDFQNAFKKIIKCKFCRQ
Also: assay procedure not described here.

Beta-1 adrenergic receptor, sequence (P08588 whole entry): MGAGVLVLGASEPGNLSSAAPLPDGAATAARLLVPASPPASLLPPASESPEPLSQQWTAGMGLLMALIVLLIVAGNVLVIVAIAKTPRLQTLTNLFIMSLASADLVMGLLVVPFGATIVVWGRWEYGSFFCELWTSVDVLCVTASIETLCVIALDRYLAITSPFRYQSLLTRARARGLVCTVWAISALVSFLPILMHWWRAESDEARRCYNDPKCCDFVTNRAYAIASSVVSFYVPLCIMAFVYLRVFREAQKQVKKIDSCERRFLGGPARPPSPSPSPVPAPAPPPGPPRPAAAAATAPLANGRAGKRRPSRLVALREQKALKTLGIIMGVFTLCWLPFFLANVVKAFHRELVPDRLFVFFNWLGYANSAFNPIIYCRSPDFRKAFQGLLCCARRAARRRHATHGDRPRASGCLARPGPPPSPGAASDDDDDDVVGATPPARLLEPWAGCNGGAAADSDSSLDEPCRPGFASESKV
3',5'-cyclic-AMP phosphodiesterase 4D, sequence (Q08499 whole entry): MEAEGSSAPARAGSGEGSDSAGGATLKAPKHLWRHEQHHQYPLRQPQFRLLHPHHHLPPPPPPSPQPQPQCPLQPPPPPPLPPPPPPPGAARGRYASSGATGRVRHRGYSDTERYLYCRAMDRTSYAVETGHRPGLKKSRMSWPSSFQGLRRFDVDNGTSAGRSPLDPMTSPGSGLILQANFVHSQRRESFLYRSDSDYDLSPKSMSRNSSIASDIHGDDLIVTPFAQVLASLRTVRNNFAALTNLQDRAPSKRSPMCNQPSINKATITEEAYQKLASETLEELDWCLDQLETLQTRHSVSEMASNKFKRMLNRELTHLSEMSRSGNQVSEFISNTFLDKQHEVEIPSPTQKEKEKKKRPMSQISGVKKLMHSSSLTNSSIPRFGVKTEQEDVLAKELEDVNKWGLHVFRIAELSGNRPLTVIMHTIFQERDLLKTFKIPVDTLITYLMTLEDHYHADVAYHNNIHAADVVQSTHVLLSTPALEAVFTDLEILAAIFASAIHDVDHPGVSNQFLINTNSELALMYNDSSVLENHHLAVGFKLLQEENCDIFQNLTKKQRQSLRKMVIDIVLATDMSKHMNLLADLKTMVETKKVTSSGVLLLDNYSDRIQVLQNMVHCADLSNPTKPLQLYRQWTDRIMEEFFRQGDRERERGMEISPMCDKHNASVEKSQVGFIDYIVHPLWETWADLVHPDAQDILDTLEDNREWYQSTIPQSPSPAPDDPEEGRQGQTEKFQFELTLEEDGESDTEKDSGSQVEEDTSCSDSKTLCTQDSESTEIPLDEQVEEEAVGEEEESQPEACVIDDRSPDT
Sodium-dependent dopamine transporter, sequence (Q01959 whole entry): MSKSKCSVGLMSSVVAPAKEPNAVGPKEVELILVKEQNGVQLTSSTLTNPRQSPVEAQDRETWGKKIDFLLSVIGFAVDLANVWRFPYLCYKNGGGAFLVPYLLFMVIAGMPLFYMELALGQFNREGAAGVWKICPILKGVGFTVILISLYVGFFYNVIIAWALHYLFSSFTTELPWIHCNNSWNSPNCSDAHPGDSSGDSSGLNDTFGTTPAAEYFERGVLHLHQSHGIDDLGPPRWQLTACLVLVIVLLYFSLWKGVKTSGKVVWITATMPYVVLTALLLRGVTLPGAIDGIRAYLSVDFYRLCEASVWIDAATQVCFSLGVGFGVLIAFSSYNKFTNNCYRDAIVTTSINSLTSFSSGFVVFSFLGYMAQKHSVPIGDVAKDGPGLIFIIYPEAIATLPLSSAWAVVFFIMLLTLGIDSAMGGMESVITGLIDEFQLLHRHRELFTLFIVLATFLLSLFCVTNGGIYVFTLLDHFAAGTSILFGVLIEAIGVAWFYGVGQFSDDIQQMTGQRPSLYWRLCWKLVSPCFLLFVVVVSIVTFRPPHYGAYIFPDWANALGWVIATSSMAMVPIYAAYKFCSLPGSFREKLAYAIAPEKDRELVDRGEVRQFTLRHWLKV

C[C@]1(COc2ccc(N3CCC(Oc4ccc(OC(F)(F)F)cc4)CC3)cc2)Cn2cc([N+](=O)[O-])nc2O1
AC50 [1]: > 10 µM
AC50 [2]: > 10 µM
AC50 [3]: > 30 µM
AC50 [4]: > 30 µM
AC50 [5]: > 30 µM
AC50 [6]: > 30 µM
AC50 [7]: > 10 µM
AC50 [8]: > 10 µM
AC50 (Androgen receptor): > 30 µM
AC50 (Motilin receptor): > 10 µM

O=C(Nc1nc(-c2cc(Cl)cs2)c(N2CCN(C3CCCCC3)CC2)s1)c1cnc(N2CCC(C(=O)O)CC2)c(Cl)c1 [AVATROMBOPAG]
AC50 [1]: > 10 µM
AC50 [2]: > 10 µM
AC50 [3]: > 10 µM
AC50 [4]: > 10 µM
AC50 [6]: > 10 µM
AC50 [7]: > 10 µM
AC50 [8]: > 10 µM
AC50 (Androgen receptor): > 30 µM
AC50 (Motilin receptor): > 10 µM

Oc1c(I)cc(Cl)c2cccnc12 [CLIOQUINOL]
AC50 (Histamine H2 receptor): > 30 µM
AC50 [9]: > 30 µM
AC50 [4]: > 30 µM
AC50 [6]: > 30 µM
AC50 [7]: > 30 µM
AC50 [8]: 13 µM
AC50 (Androgen receptor): > 30 µM

c1ccc2c(CC3=NCCN3)cccc2c1 [NAPHAZOLINE]
AC50 [7]: 0.33 µM
AC50 (Androgen receptor): > 30 µM

CCCC(=O)O[C@H]1[C@H](C)O[C@@H](O[C@H]2[C@H](N(C)C)[C@@H](O)[C@H](O[C@H]3[C@@H](CC=O)C[C@@H](C)[C@@H](O)/C=C/C=C/C[C@@H](C)OC(=O)C[C@@H](O)[C@@H]3OC)O[C@@H]2C)C[C@@]1(C)OC(=O)CC [ROKITAMYCIN]
AC50 (Androgen receptor): > 30 µM

CCCCCCCCCCCCCCCCCC(=O)NCCCC[C@H](NC(=O)CC[C@@H](NC(=O)[C@H](C)NC(=O)[C@@H](C)O[C@H]1[C@H](O)[C@@H](CO)OC(O)[C@@H]1NC(C)=O)C(N)=O)C(=O)O (stereo partly drawn) [ROMURTIDE]
AC50 (Androgen receptor): 5.69 µM

CCOC(=O)[C@H](CCc1ccccc1)N[C@H]1CS[C@H](c2cccs2)CN(CC(=O)O)C1=O [TEMOCAPRIL]
AC50 (Androgen receptor): > 30 µM

c1ccc2[nH]c(-c3cscn3)nc2c1 [THIABENDAZOLE]
AC50 (Androgen receptor): > 30 µM

C[C@@H]1C[C@H]2[C@@H]3CCC4=CC(=O)C=C[C@]4(C)C3=CC[C@]2(C)[C@H]1C(=O)CN1CCN(c2cc(N3CCCC3)nc(N3CCCC3)n2)CC1 [TIRILAZAD]
AC50 (Androgen receptor): 6.61 µM
